ChEMBL document CHEMBL5126508, “Therapeutic potential of quinazoline derivatives for Alzheimer's disease: A comprehensive review” (Eur J Med Chem, 2022)

Assays:
[1] = Inhibition of Kainate receptor (unknown origin); parameters: species or system Homo sapiens
[2] = Antioxidant activity assessed as radical scavenging incubated for 90 mins in dark DPPH assay; format: functional
Beta-secretase 1 = Beta-secretase 1 (Homo sapiens, UniProt P56817); assay: Inhibition of BACE1 (unknown origin) incubated in dark for 90 mins by FRET assay
Sequence of Beta-secretase 1 (P56817 whole entry): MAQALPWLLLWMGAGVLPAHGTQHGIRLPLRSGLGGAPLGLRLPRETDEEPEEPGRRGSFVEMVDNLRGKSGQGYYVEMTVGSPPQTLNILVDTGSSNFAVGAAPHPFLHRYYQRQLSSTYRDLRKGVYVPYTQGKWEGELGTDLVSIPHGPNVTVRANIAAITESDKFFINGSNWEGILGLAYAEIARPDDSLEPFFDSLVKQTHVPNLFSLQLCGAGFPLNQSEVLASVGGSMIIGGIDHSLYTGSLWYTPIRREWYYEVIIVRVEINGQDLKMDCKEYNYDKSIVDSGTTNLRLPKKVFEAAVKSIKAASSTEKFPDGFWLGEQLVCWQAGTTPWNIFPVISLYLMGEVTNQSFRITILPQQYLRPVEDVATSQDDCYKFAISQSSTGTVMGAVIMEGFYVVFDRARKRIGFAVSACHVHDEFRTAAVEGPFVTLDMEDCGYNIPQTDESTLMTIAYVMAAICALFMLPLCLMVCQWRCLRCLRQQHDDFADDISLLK

Acetylcholinesterase [3] = target: T1, Acetylcholinesterase (Homo sapiens, UniProt P22303); assay: Inhibition of AChE (unknown origin)
T1 sequence (P22303 whole entry): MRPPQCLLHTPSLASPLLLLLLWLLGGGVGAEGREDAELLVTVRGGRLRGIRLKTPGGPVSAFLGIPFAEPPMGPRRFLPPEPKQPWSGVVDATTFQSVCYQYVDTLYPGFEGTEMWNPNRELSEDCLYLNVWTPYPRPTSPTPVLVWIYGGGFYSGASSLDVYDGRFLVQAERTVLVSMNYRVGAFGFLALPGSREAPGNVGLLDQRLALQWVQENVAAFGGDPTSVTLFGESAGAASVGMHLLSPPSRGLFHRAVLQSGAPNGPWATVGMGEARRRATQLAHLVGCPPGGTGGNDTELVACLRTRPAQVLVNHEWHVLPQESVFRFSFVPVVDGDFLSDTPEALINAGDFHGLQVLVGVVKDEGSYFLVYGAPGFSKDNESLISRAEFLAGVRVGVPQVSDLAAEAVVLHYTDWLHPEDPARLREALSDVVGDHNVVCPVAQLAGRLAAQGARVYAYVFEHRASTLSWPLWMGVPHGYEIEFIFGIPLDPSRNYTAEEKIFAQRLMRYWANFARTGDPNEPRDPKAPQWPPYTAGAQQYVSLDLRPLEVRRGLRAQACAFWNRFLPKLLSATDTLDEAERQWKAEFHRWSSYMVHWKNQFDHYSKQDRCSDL

Cholinesterase [4] = target: Cholinesterase (Homo sapiens, UniProt P06276); assay: Inhibition of BuChE (unknown origin)
Sequence of Cholinesterase (Homo sapiens, UniProt P06276) (P06276 whole entry): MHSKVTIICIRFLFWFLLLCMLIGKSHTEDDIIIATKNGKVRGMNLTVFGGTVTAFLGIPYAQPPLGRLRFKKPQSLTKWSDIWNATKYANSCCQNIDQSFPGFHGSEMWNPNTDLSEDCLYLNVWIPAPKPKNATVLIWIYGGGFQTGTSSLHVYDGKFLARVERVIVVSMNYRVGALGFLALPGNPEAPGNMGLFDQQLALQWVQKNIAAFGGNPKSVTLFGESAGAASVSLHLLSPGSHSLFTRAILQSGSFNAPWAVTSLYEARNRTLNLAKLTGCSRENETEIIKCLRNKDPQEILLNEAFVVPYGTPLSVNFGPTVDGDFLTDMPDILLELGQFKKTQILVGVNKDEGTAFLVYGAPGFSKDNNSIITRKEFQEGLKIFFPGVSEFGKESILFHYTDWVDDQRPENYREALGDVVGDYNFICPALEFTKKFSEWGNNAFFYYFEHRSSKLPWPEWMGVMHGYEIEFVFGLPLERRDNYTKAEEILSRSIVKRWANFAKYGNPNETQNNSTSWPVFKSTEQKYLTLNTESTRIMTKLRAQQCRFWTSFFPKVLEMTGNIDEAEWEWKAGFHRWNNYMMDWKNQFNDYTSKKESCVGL

Acetylcholinesterase [5] = target: T2, Acetylcholinesterase (Electrophorus electricus, UniProt O42275); assay: Inhibition of electric eel AChE using acetylthiocholine incubated for 30 mins by measuring hydrolysis of substrate by Ellman's method
T2 sequence (O42275 whole entry): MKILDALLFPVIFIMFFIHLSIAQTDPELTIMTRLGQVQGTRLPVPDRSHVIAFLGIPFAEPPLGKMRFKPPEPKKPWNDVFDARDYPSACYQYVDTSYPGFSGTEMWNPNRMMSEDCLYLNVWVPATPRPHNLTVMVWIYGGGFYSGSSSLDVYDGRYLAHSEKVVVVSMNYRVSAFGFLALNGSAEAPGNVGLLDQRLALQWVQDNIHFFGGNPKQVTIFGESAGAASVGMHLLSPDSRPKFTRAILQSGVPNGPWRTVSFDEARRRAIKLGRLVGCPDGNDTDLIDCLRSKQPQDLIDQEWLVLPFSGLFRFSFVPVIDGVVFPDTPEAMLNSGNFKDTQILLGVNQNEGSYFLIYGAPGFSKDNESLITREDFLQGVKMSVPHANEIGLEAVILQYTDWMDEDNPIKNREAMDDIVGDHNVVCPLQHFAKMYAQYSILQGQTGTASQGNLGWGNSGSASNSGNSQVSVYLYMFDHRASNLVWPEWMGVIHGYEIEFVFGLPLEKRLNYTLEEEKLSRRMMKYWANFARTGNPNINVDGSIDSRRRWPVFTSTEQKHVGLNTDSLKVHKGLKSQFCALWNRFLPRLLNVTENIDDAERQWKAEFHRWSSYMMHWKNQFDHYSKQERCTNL

[6] = Inhibition of PDE7 (unknown origin); parameters: species or system Homo sapiens
[7] = Ratio of IC50 for equine BuChE to IC50 for electric eel AChE
Cholinesterase [8] = target: T3, Cholinesterase (Equus caballus, UniProt P81908); assay: Inhibition of equine serum BuChE
T3 sequence (P81908 whole entry): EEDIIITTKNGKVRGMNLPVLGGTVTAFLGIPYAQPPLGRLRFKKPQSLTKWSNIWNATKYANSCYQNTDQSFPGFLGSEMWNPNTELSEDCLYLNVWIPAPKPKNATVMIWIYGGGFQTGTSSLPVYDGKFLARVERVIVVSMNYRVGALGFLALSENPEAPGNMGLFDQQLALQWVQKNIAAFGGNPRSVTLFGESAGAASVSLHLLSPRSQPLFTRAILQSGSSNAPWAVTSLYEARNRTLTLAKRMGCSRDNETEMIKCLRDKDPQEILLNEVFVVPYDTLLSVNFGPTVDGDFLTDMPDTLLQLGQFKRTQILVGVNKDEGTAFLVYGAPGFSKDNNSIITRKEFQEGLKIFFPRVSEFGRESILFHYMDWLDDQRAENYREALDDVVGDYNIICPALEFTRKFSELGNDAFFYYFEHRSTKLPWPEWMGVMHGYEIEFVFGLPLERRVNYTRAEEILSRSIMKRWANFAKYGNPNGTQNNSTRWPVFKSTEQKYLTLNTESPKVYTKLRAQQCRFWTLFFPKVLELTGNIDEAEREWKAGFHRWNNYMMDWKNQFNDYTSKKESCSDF

Acetylcholinesterase [9] = target: T2, Acetylcholinesterase; assay: Inhibition of electric eel AChE
Acetylcholinesterase [10] = target: T1, Acetylcholinesterase; assay: Inhibition of human AChE
Acetylcholinesterase [11] = target: T1, Acetylcholinesterase; assay: Inhibition of AChE (unknown origin) incubated for 20 mins by TLC analysis
[12] = Antioxidant activity assessed as radical scavenging at 100 ug/ml by DPPH assay relative to control; format: functional
[13] = target: T4, Amine oxidase [flavin-containing] B (Homo sapiens, UniProt P27338); assay: Inhibition of MAO-B (unknown origin)
T4 sequence (P27338 whole entry): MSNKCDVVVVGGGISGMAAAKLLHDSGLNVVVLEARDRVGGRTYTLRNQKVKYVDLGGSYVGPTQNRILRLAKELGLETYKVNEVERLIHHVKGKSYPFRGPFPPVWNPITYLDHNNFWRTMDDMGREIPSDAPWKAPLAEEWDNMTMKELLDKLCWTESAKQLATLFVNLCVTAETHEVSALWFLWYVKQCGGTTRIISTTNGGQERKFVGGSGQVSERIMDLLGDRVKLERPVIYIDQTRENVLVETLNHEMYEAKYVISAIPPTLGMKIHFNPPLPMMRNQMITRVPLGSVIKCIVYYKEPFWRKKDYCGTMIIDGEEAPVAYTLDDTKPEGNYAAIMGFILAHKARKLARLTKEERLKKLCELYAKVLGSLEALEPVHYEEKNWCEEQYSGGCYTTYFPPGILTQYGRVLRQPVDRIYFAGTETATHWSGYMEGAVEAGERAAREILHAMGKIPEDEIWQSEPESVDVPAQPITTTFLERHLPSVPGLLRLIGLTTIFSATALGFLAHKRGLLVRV

[14] = target: T5, Amine oxidase [flavin-containing] A (Homo sapiens, UniProt P21397); assay: Inhibition of MAO-A (unknown origin)
T5 sequence (P21397 whole entry): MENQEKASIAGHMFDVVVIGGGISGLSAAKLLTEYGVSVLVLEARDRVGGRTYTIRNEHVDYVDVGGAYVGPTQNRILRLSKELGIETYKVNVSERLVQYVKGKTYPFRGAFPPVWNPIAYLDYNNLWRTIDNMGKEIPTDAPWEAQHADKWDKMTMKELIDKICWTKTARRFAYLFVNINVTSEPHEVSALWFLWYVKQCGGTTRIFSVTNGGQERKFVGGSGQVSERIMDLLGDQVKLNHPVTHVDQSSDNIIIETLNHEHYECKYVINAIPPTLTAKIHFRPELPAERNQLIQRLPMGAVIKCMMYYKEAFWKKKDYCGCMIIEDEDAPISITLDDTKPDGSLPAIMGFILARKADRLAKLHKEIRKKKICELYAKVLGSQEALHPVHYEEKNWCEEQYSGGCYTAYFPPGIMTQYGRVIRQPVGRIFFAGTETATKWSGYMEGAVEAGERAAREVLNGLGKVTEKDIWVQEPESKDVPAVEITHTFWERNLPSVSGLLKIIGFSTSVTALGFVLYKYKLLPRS

Cholinesterase [15] = target: T3, Cholinesterase; assay: Inhibition of equine serum BuChE incubated measured after 25 mins by spectrophotometric analysis; format: cell-free
[16] = Ratio of IC50 for electric eel AChE to ratio of IC50 for equine BuChE
Phosphodiesterase 4 = Phosphodiesterase 4 (Homo sapiens, UniProt P27815+Q08499+Q07343+Q08493); assay: Inhibition of PDE4 (unknown origin); format: protein assay
[17] = target: 3',5'-cyclic-AMP phosphodiesterase 4D (Homo sapiens, UniProt Q08499); assay: Inhibition of PDE4D2 (unknown origin)
Sequence of 3',5'-cyclic-AMP phosphodiesterase 4D (Q08499 whole entry): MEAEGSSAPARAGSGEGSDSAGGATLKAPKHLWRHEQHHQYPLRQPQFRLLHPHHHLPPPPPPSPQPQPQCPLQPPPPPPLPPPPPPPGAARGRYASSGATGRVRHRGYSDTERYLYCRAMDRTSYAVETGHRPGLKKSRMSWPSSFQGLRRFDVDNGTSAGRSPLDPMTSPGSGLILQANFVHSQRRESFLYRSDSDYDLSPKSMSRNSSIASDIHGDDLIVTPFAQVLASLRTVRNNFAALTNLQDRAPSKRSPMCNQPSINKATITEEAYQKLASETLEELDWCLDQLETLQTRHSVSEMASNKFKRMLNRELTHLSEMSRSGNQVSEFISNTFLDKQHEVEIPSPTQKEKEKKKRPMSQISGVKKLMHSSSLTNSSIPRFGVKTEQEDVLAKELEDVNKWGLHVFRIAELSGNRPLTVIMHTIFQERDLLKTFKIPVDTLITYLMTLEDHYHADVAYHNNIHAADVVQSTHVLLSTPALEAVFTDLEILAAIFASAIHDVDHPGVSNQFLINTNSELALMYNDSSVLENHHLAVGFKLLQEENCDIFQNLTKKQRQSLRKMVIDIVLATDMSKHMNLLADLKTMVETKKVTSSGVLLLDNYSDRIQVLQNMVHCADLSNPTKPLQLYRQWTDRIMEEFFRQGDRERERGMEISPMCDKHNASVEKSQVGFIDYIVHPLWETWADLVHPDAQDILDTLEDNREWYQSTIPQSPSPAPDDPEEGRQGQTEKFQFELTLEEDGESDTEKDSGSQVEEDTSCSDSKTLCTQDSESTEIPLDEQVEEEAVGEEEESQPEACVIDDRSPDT

[18] = target: Cyclin-dependent kinase 1 (Homo sapiens, UniProt P06493); assay: Inhibition of CDK1 (unknown origin)
Sequence of Cyclin-dependent kinase 1 (P06493 whole entry): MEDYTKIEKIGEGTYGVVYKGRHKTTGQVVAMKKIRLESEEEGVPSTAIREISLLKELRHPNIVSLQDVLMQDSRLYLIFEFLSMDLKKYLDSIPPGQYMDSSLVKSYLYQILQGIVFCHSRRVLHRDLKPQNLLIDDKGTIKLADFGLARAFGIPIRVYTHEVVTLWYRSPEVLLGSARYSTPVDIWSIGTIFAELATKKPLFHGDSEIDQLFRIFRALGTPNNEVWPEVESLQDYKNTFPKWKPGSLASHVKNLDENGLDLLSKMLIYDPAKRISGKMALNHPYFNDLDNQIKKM

[19] = target: Cyclin-dependent kinase 5 (Homo sapiens, UniProt Q00535); assay: Inhibition of CDK5 (unknown origin)
Sequence of Cyclin-dependent kinase 5 (Q00535 whole entry): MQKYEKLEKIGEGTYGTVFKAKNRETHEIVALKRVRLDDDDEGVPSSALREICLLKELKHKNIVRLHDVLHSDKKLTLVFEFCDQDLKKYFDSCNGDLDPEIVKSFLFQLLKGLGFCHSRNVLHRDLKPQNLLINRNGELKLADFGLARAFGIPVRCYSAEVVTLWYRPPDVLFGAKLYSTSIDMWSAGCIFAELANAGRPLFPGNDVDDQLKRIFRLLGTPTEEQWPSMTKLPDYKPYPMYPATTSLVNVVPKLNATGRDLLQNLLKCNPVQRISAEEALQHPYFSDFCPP

[20] = target: Glycogen synthase kinase-3 (Homo sapiens, UniProt P49840+P49841); assay: Inhibition of GSK3alpha/beta (unknown origin); format: protein assay
SH-SY5Y = assay: Cytotoxicity against human SH-SY5Y cells assessed as cell viability at 100 uM relative to control; format: functional; settings: read-out: Activity
[21] = target: Cyclin-dependent kinase 2 (Homo sapiens, UniProt P24941); assay: Inhibition of CDK2 (unknown origin)
[22] = target: Cyclin-dependent kinase 3 (Homo sapiens, UniProt Q00526); assay: Inhibition of CDK3 (unknown origin)
Sequence of Cyclin-dependent kinase 3 (Q00526 whole entry): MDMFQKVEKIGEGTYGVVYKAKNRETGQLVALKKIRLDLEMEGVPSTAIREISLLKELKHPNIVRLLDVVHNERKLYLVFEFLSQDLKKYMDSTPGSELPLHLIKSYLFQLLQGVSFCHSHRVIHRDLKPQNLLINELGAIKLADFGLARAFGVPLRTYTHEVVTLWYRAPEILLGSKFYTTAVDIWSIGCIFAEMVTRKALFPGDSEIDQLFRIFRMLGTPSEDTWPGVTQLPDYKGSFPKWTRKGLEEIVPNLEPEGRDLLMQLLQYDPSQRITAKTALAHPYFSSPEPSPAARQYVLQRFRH

[23] = target: Cyclin-dependent kinase 4 (Homo sapiens, UniProt P11802); assay: Inhibition of CDK4 (unknown origin)
Sequence of Cyclin-dependent kinase 4 (P11802 whole entry): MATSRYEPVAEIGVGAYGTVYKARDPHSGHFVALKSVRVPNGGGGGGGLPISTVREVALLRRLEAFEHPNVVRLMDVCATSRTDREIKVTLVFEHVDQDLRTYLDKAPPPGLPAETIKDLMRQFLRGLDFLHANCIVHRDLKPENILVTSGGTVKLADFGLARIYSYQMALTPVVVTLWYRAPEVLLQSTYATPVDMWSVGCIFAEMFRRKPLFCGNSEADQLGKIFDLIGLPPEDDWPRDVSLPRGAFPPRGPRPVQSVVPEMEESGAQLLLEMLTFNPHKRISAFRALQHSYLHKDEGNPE

## O=C(O)c1cc2c3cc(-n4cnnc4)c(Cl)cc3[nH]c(=O)n2n1
[1]
  IC50: 5.5 µM

## Cn1c(N/N=C/c2ccc(O)cc2O)nc2ccccc2c1=O
[2]
  IC50: 8.4 µM
Beta-secretase 1
  IC50: 27.6 µM

## O=C(O)C1=Nc2ccccc2CN1
Acetylcholinesterase [3]
  IC50: 345 µM
Cholinesterase [4]
  IC50: > 1000 µM

## CC1(c2ccc(Cl)cc2)Nc2cc(Cl)ccc2-c2ccnn21 (stereo unspecified)
Acetylcholinesterase [5]
  IC50: 358 µM
Cholinesterase [4]
  IC50: > 379 µM

## O=c1c2cccc(Cl)c2[nH]c(=S)n1-c1c(F)cccc1F
[6]
  IC50: 6.1 µM

## c1ccc2c(c1)CCCN1Cc3cc(OCCCN4CCCCC4)ccc3N=C21
[7]
  Ratio IC50: 47
Cholinesterase [8]
  IC50: 2.67 µM
Acetylcholinesterase [9]
  IC50: 0.0571 µM
Acetylcholinesterase [10]
  IC50: 0.535 µM

## O=Cc1ccn(-c2cc3c(cc2Cl)nc(O)n2nc(C(=O)O)cc32)c1
[1]
  IC50: 5.1 µM

## c1ccc2c(c1)CN1CCCC1=N2
Acetylcholinesterase [3]
  IC50: 2.37 µM
Cholinesterase [4]
  IC50: 0.04 µM

## O=c1c2ccccc2nc2n1CCC2O (stereo unspecified)
Acetylcholinesterase [3]
  IC50: 76.6 µM
Cholinesterase [4]
  IC50: 10.2 µM

## O=c1c2ccccc2nc2n1CC[C@@H]2[C@@H]1CCCN1
Cholinesterase [4]
  IC50: > 500 µM
Acetylcholinesterase [11]
  IC50: 5.71 µM

## C=CCNC(=S)NNc1nc2nc(SC)nn2c2ccccc12
[12]
  inhibition: 91%

## Cn1c(N/N=C(\C=C\c2cccc(Cl)c2)c2ccccc2)nc2ccccc2c1=O
[13]
  IC50: 1.15 µM
[14]
  IC50: 468 µM

## CC(C)CC1(CC(C)C)NC(=O)c2ccccc2N1Cc1ccccc1
Cholinesterase [15]
  IC50: 2.48 µM
[16]
  Ratio IC50: 3.1

## CSc1nc2ccccc2c(=O)n1-c1c(F)cccc1F
Phosphodiesterase 4
  IC50: 3.5 µM
[17]
  IC50: 3.5 µM

## CC(C)CC1(CC(C)C)NC(=O)c2ccccc2N1Cc1ccc(Cl)cc1
Cholinesterase [15]
  IC50: 1.56 µM
[16]
  Ratio IC50: 2.6

## c1cc2c(cc1OCCCN1CCCCC1)CN1CCCCCC1=N2
[7]
  Ratio IC50: 0.296
Cholinesterase [8]
  IC50: 0.0127 µM
Acetylcholinesterase [9]
  IC50: 0.043 µM
Acetylcholinesterase [10]
  IC50: 0.82 µM

## COC(=N)c1nc2ccc3ncnc(Nc4ccc(Br)cc4F)c3c2s1
[18]
  IC50: > 10 µM
[19]
  IC50: > 10 µM
[20]
  IC50: 0.16 µM

## O=C(CCN1CCCCC1)Nc1ccc2nc(-c3cc4ccccc4[nH]3)[nH]c(=O)c2c1
Cholinesterase [4]
  IC50: 7.32 µM

## NNC(=O)CN1C(=O)c2ccccc2NC1c1ccc2c(c1)OCO2 (stereo unspecified)
[13]
  IC50: 83 µM
[14]
  IC50: 0.0021 µM

## O=c1c2ccccc2nc2n1C(c1cncc3[nH]c4ccccc4c13)CC2O (stereo unspecified)
Acetylcholinesterase [3]
  IC50: 70.5 µM
Cholinesterase [4]
  IC50: 18.2 µM

## O=C(NCCc1ccc(O)cc1)C1CCC2=Nc3ccc(Br)cc3CN21 (stereo unspecified)
SH-SY5Y
  viability at 100 µM: 78.6%

## Cn1c(N/N=C/c2cccc(Cl)c2Cl)nc2ccccc2c1=O
[2]
  IC50: > 100 µM

## COC(=N)c1nc2ccc3ncnc(Nc4ccc(Cl)cc4Cl)c3c2s1
[21]
  IC50: 0.0888 µM
[18]
  IC50: 0.0228 µM
[22]
  IC50: > 10 µM
[23]
  IC50: 0.059 µM
